Publication PMC3715451, “Roles for Ordered and Bulk Solvent in Ligand Recognition and Docking in Two Related Cavities” (PLoS ONE, 2013)
Entries after “also recorded” stand apart in the source; their conditions may differ. Like-named read-outs stand apart in the source and are kept apart here.

Key:
[1] = target: T1, Cytochrome c Peroxidase Gateless cavity (P190G/W191G/Δ192-3) (Saccharomyces cerevisiae, UniProt P00431, A260G/D219G/DEL257-258/P257G/T120I/W258G); experiment: Binding to the CcP Gateless cavity by titration of the UV-Vis Heme Soret band (or ITC); conditions: for Binding by UV-Vis: neutral docking hits, at up to 1 mM concentration
T1 construct: made in house
Procedure: (§1) Our first interest was to investigate the effect of opening the cavity to bulk solvent. Six known ligands of the buried W191G cavity were tested for binding to the Gateless cavity (P190G/W191G/Δ192-3) by UV-Vis titration or by Isothermal Titration Calorimetry (ITC) ( Figure 2 , Table S1 and Figure S1).
(§2) The compounds were tested for binding by measuring perturbation of the Heme Soret band at 10°C in 100 mM citrate buffer at pH 4.5 or 500 mM MES buffer pH 6.0 [27], [73]. To avoid competition with small cations like potassium, the pH of both buffer conditions was adjusted with Bis-Tris-Propane. Stock solutions were made up in DMSO and diluted into assay buffer to derive KD values in titration curves. KD values were obtained by fitting the difference absorbance of the Heme Soret band to a one-site binding hyperbola in GraphPad Prism (GraphPad Software, Inc.).
(§3) Experiments were performed as described. Assays were performed at 10°C in 100 mM citrate buffer at pH 4.5. Ligand stocks were prepared in buffer from overnight dialysis of the protein to prevent buffer mismatch.

[2] = tested on: Cytochrome c Peroxidase Gateless cavity (P190G/W191G/Δ192-3); experiment: as above; conditions: for improvement in affinity in Gateless versus closed W191G: ratio of KD W191G / Gateless; for loss in affinity going from W191G to Gateless: ratio of KD Gateless / W191G
Procedure: as §1, §2, §3

[3] = target: Cytochrome c Peroxidase W191G cavity; conditions: closed W191G cavity, cited from earlier work
CcP Gateless = target: T2, CcP Gateless (Saccharomyces cerevisiae, UniProt P00431, A260G/D219G/DEL257-258/P257G/T120I/W258G); experiment: Low C-value Isothermal Titration Calorimetry against CcP Gateless; format: binding; conditions: ITC, 283K; † approximate value from partial ITC curves
T2 construct: made in house
Procedure: as §3
Table S1. ITC data (ΔG, ΔH and ΔS): binding of compounds 1, 2, 3, 4 and 6 to CcP Gateless at 283K.

[4] = compounds selected from the SEV docking screen, CcP Gateless cavity, UV-Vis Heme Soret band titration, read-out: KD
[5] = known ligands of W191G, reference not given, read-out: KD W191G
[6] = six known W191G ligands, UV-Vis titration or ITC, † = approximate KD by endpoint UV-Vis assay or partial ITC curves, limited by solubility, read-out: KD Gateless

T2 sequence (P00431 other isoform, or with tags, fused parts or gaps T120I/D219G/DEL257-258/A260G): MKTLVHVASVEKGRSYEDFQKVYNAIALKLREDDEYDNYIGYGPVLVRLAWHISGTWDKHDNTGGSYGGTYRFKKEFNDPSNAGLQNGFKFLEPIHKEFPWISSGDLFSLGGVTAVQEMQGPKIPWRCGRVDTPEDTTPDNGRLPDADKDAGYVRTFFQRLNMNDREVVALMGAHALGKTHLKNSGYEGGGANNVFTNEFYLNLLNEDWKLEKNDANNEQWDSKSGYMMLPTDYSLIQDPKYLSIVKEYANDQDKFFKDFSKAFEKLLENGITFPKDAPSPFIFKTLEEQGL
T1 sequence (P00431 other isoform, or with tags, fused parts or gaps T120I/D219G/DEL257-258/A260G): as above

## Nc1ccc2nccn2c1 [Compound 20, Imidazo[1,2-a]pyridin-6-amine]
[1]; [4]
  Kd: 290 µM

## Oc1ccccc1 [Compound 5, Phenol]
[2]; W191G versus Gateless
  change of affinity between the two cavities: almost unchanged
[3]; [5]
  Kd: 4100 µM

## Nc1cccc2nccn12 [Compound 14, imidazo[1,2-a]pyridin-5-amine]
[1]; [4]
  Kd: 14 µM

## Oc1cccc(F)c1O [Compound 6, 3-fluorocatechol]
[1]; open Gateless cavity, read-out: affinity in Gateless
  Kd: 3100 µM
[1]; [6]
  Kd: ~3100 µM
[2]
  improvement in affinity in Gateless versus closed W191G: 2 fold
CcP Gateless
  ΔG: ~-3.2† kcal/mol
  ΔH: ~-1.0† kcal/mol
[3]; no reference given, read-out: affinity in W191G
  Kd: 7700 µM

## Nc1c([N+](=O)[O-])cnc2ccccc12 [Compound 13]
[1]; [4]
  Kd: 8 µM

## Cc1cn2cccc(O)c2n1 [Compound 21]
[1]; [4]
  Kd: 16 µM

## Cn1ccnc1Sc1ccccc1N [Compound 15]
[1]; [4]
  Kd: 203 µM

## COc1ccc(Nc2cc(C)nc(N)n2)cc1 [Compound 16]
[1]; [4]
  Kd: 17 µM

## O=C(/C=C/c1ccc(F)cc1)c1ccco1 [Compound 7]
[1]
  Binding by UV-Vis: none showed measurable affinity; also recorded: No binding

## Nc1ccnc(N)n1 [Compound 2, 2,4-diaminopyrimidine]
[1]; [6]
  Kd: 389 µM
[2]
  loss in affinity going from W191G to Gateless: 8 fold
CcP Gateless
  TΔS: -1.14 kcal/mol
  ΔG: -4.42 kcal/mol
  ΔH: -5.56 kcal/mol
[3]; [5]
  Kd: 50 µM

## C[n+]1cccc(N)c1 [Compound 4, 3-amino-1-methylpyridinium]
[1]; [6]
  Kd: ~3000 µM
[2]
  loss in affinity going from W191G to Gateless: 6 fold
CcP Gateless
  TΔS: ~-3.6† kcal/mol
  ΔG: ~-3.6† kcal/mol
  ΔH: ~-7.2† kcal/mol
[3]; [5]
  Kd: 500 µM

## O=Cc1cnc2cc[nH]c2c1 [Compound 24, 1H-Pyrrolo[3,2-b] pyridine-6-carbaldehyde]
[1]; [4]
  Kd: > 2000 µM

## CNc1nc2ccccc2[nH]1 [Compound 22, N-methyl-1H-1,3-benzodiazol-2-amine]
[1]; [4]
  Kd: 288 µM

## Cc1cc(N)n(-c2ccccc2[N+](=O)[O-])n1 [Compound 18]
[1]; [4]
  Kd: 823 µM

## Nc1c2c(nc3sccc13)CCCC2 [Compound 10, 5,6,7,8-tetrahydrothieno[2,3-b]quinolin-4-amine]
[1]; [4]
  Kd: 64 µM

## Nc1cccc(N)n1 [Compound 3, 2,6-diaminopyridine]
[1]; [6]
  Kd: 38 µM
[2]
  improvement in affinity in Gateless versus closed W191G: about 1.5 fold
CcP Gateless
  TΔS: -3.31 kcal/mol
  ΔG: -5.73 kcal/mol
  ΔH: -9.04 kcal/mol
[3]; [5]
  Kd: 60 µM

## C[C@@H](O)CNc1ncnc2ccccc12 [Compound 19]
[1]; [4]
  Kd: 37 µM

## Nc1c(Br)cnc2ccccc12 [Compound 11]
[1]; [4]
  Kd: 19 µM

## Cc1cnc(N)s1 [Compound 1, 2-amino-5-methylthiazole]
[1]; [6]
  Kd: 95 µM
[2]
  loss in affinity going from W191G to Gateless: 16 fold
CcP Gateless
  TΔS: 0.21 kcal/mol
  ΔG: -5.21 kcal/mol
  ΔH: -5.00 kcal/mol
[3]; [5]
  Kd: 6 µM

## O=C(Oc1cccc([N+](=O)[O-])c1)c1ccncc1 [Compound 9]
[1]
  Binding by UV-Vis: none showed measurable affinity; also recorded: No binding

## O=C(Oc1ccccc1)c1ccc2n[nH]nc2c1 [Compound 8]
[1]
  Binding by UV-Vis: none showed measurable affinity; also recorded: No binding

## Nc1ncc(C=O)c(N)n1 [Compound 23]
[1]; compounds selected from the SEV docking screen, CcP Gateless cavity, UV-Vis Heme Soret band titration
  KD: Non Binder

## OCc1cnc2cc[nH]c2c1 [Compound 17, (1H-Pyrrolo[3,2-b]pyridin-6-yl)methanol]
[1]; [4]
  Kd: 982 µM
